Data: patent US5420289A, “Substituted indole-, indene-, pyranoindole- and tetrahydrocarbazole-alkanoic acid derivatives as inhibitors of PLA2 and lipoxygenase” (American Home Products Corporation, priority 1993, dated 1995)
Each block holds one molecule with its values, some of them ahead of it.

Legend:
[1] = system: synthesis of LTB4 by rat glycogen-elicited polymorphonuclear leukocytes (PMN); test: inhibition of LTB4 synthesis by rat glycogen-elicited PMN (Example 72); type: cell-based, rat (female Wistar); conditions: Leukocyte; for inhibition at 10000 µM: at 10 mM, negative number denotes potentiation
Excerpt: This is especially true with respect to 5,12-diHETE, which is also denoted as LTB4 lsee Ford-Hitchinson, J. Roy. Soc. Med., 74, 831 (1981)]. Compounds which inhibit the PLA2 -mediated release of arachidonic acid thereby effectively prevent the oxidation of arachidonic acid to the various leukotriene products via the lipoxygenase cascade. Accordingly, the specificity of action of PLA2 inhibitors can be determined by the activity of test compounds in this assay, which measures the ability of compounds to inhibit the synthesis of LTB4 by rat glycogen-elicited polymorphonuclear leukocytes (PMN) in the presence of exogenous substrate.
The assay is carded out as follows:
(§1) Rat polymorphonuclear leukocytes (PMNs) are obtained from female Wistar rats (150-200 g) which receive an injection of 6% glycogen (10 ml i.p.). Rats are sacrificed 18-24 hours post injection by CO2 asphyxiation and the elicited cells are harvested by peritoneal lavage using physiological saline (0.9% NaC1). The exudate is centrifuged at 400 ×g for 10 minutes. The supernatant fluid is discarded and the cell pellet is resuspended to a concentration of 2.0×10^7 cells/mL in HBSS containing Ca^++ and Mg^++ and 10 mM L-cysteine.
(§2) To 1 mL aliquots of cell suspension, test drugs or vehicle are added, then preincubated at 37° C. for 10 minutes. A23187 (1 mM), [^3 H]-AA (3.0 mCi/mL) and unlabeled AA (1 mM) are then added and the samples are further incubated for 10 minutes. The reaction is terminated by centrifugation and pelleting cells. Supernatants are then analyzed by HPLC analysis on a 15 cm×4.6 mm ID supelcosil LC-18 (Supelco)(3M) column, using a two solvent system at a flow rate of 1.4 mL total flow as follows:
Gradient: (system is equilibrated with Solvent A)
Percent solvent changes are accomplished in a linear fashion.
Injections: […] of each supernatant is injected directly onto column and ^3 H arachidonic acid metabolites are monitored using an on-line radioactivity detector (Ramona, IN/U S, Fairfield, NJ).
Standards: 10^4 -2.0×10^4 dpm of eicosanoids of interest are injected in […] EtOH cocktail.
Co-chromatography with standard [^3 H] leukotriene B4 (LTB4) in medium of stimulated PMN exposed to drug is compared to that found in medium of stimulated cells exposed to no drug, generating percent inhibition.
Results are expressed as percent inhibition at a given compound dose or as an IC50 value.

[2] = system: cyclooxygenase (PGE2 synthesis) in rat polymorphonuclear leukocytes (PMN); test: inhibition of PGE2 synthesis (cyclooxygenase) by rat glycogen-elicited PMN (Example 73); type: cell-based, rat (female Wistar); conditions: Leukocyte, * (negative) denotes a potentiation; for inhibition at 10000 µM: at 10 mM, read-out: % Inhibition (PGE2 synthesis); for inhibition at 500 µM: at 0.5 mM
Protocol: as §1, §2
In this assay, the procedure of Example 72 is carried out as described. However, in order to determine cyclooxygenase activity, the samples are cochromatographed with authentic reference [^3 H]-PGE2.
The results be calculated as in Example 72 and presented below: […]

[3] = molecular target: T1, human synovial fluid PLA2 (Homo sapiens, UniProt P14555); test: in vitro isolated phospholipase A2 assay, human synovial fluid PLA2 (Example 74); type: biochemical; design: inhibition / % Inhibition, HSF (human synovial fluid): dose or concentration left out as unconfirmed; conditions: for IC50: Table III, read-out: IC50 HSF (human synovial fluid); for inhibition: read-out: % Inhibition, HSF (human synovial fluid)
T1 sequence (P14555 21-144): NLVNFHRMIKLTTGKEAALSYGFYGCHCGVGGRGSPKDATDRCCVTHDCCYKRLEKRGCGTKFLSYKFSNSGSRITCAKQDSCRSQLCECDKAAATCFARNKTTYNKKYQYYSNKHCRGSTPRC
Procedure, shortened: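 Human synovial fluid PLA2 (purified) acts on ³H-arachidonate-labelled E. coli substrate, 10 minutes at 37° C with shaking; stopped with tetrahydrofuran. Released arachidonic acid is isolated on NH2 columns, eluted with tetrahydrofuran/2% acetic acid and quantitated by β-counting against a total-counts sample.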

[4] = system: paw edema induced by PLA2 from the diamond back cotton mouth snake (A. piscivorus piscivorus); test: in vivo PLA2 murine paw edema assay (Example 75); design: species or system mouse (male CD-1); conditions: for ED50 at +10 min.: p.o., at +10 min after PLA2, standard drugs
Protocol: The ability of the compounds of the invention to inhibit paw edema induced by the exogenous administration of PLA2 is measured in the in vivo PLA2 murine paw edema assay.
The assay is carried out as follows:
Non-fasted, male CD-1 mice (8 weeks old; 31-36 grams) are placed in plastic boxes in groups of six. The right hind paw volume is measured using mercury plethysmography (zero time). Compounds are dosed orally (0.5 mL of 0.5% Tween-80) 1 or 3 hours prior to PLA2 injection or intravenously (0.2 mL in 0.3% dimethylsulfoxide/saline) 3 minutes prior to PLA2 injection. A solution of purified PLA2, from the diamond back cotton mouth snake (A. piscivorus piscivorus) is prepared in saline at a concentration of 6 mg/mL. Fifty (50) uL (0.3 mg) of this PLA2 solution is injected subcutaneously into the right hind paw with a plastic 1 mL plastic syringe (27 gauge, "1" needle). Paw volume of the injected paw is measured again at 10 minutes, 30 minutes and 60 minutes after PLA2 injection. Animals are euthanized with CO2 at the completion of the study.
The paw edema is calculated by subtracting the zero time volume from the volume recorded at each time period. Mean paw edema for each treatment group is then calculated and expressed as (mL±S.E.). Drug effects are expressed as a percent change from control (vehicle) values. Statistical significance is determined by a one-way analysis of variance with LSD comparison to control (p<0.05). ED50 's are determined using repression analysis.

human platelet PLA2 = molecular target: T2, human platelet PLA2 (Homo sapiens, UniProt P14555); test: in vitro isolated phospholipase A2 assay, human platelet PLA2 (Example 74); type: biochemical; design: dose or concentration left out as unconfirmed; conditions: read-out: % Inhibition, HP (human platelet)
T2 construct: Semi-purified human platelet acid extract PLA2; from tissue; host or cells: human platelets (semi-purified acid extract)
T2 sequence (P14555 21-144): T1 sequence (P14555 21-144)
Protocol: The compounds of the invention are tested in an in vitro isolated phospholipase A2 assay to determine the ability of the test compounds to inhibit the release of arachidonic acid from an arachidonic acid-containing substrate by the action of phospholipase A2 enzyme from human and non-human sources.
(§3) This assay is carried out as follows:
Into a 15 mL polypropylene tube are added the following:
^6 Two human PLA2 enzymes are used:
a) Semi-purified human platelet acid extract PLA2 (in 10 mM
sodium acetate buffer, pH 4.5). Remove protein precipitate by
centrifugation at about 2200 rpm for 10 minutes.
Incubate the 100mL reaction mixture for 10 minutes at 37° C. in a shaking water bath. The reaction is terminated by the addition of 2 mL tetrahydrofuran, followed by vortexlag. NH2 columns (100 mg/mL--Analytichem International) are conditioned with 0.5 mL tetrahydrofuran followed by 0.5 mL tetrahydrofuran/water (2 mL:0.1 mL, v/v).
The sample is loaded onto the columns and slowly drawn through them. The hydrolyzed arachidonic acid retained in the columns is eluted therefrom with 1 mL tetrahydrofuran/glacial acetic acid (2%). The arachidonic acid is transferred to scintillation vials and quantitated by b-counting analysis. A "total counts" sample is prepared by pipetting […] ^3 H-arachidonate E. coli directly into a scintillation vial to which is added 1 mL tetrahydrofuran. 10 mL aquasol (scintillation cocktail) is added to all samples. [formula]

[5] = system: 5-lipoxygenase in human whole blood; test: inhibition of 5-lipoxygenase in human whole blood (Example 79); type: cell-based; conditions: 25 μM
Protocol: The assay of this Example measures the ability of the compounds tested to inhibit 5-lipoxygenase in human whole blood.
as §3
Blood is obtained in 50-100 ml quantities from male donors. White blood cell counts and differentials are made. Two ml of blood are placed in a 15 ml polypropylene test tube. Compounds are solubilized in dimethylsulfoxide and diluted 1:10 in 10% bovine serum albumin in phosphate buffered saline, pH 7.4 resulting in a final dimethylsulfoxide concentration of 0.1% in the blood. Then, compounds are added to the blood in a shaking water bath at 37° C. for 10 minutes prior to the addition of […] calcium ionophore (A23187; Sigma). After ionophore administration, whole blood samples are mixed and incubated for 20 minutes at 37° C. in a shaking water bath. Incubation is terminated by placing samples in an ice bath and immediately adding ethylene glycol-bis-(b-aminoethyl ether)-N,N,N',N'-tetraacetic acid (10 mM). Samples are mixed and centrifuged at 1200 × g for 15 minutes at 4° C. Preparation of samples for evaluation by RIA or ELISA is carried out by the following protocol. Plasma is removed from sample tubes, placed in 15 ml polypropylene test tubes containing 8 ml methanol, and then vortexed to precipitate protein. Samples are stored at -70° C. overnight. The next day, samples are centrifuged at 200 × g for 15 minutes at 4° C. to pellet the precipitate. Samples are dried in a Savant speed vac concentrator, reconstituted to original volume with ice cold RIA or ELISA buffer, and stored at -70° C. until assayed. The assay for eicosanoids (LTB4, T×B2, and PGE2) is performed as described by the manufacturer of the [^3 H]-RIA kit or ELISA kit (LTB4 -Amersham, TxB2 and PGE2 - Caymen Chemical).
The total eicosanoid level in 2 ml of blood is calculated and reported as ng/10^6 neutrophils. […] Drug effects are expressed as percent change from control values.
Compounds tested in vitro are solubilized in dimethylsulfoxide and diluted 1:10 in 10% bovine serum albumin in phosphate buffer saline resulting in a final dimethylsulfoxide concentration of 0.1% i n the blood.

Molecule: CSc1ccc(/C=C2/C(C)=C(CC(=O)O)c3cc(OCc4ccc5ccccc5n4)ccc32)cc1 [Example 2, 2-Methyl-3-[[4-(methylthio)phenyl]methylene]-6-(2-quinolinylmethoxy)-3H-indene-1-acetic acid]
inhibition at 10000 µM [1]: 96%
inhibition at 10000 µM [2]: 92%
IC50 [3]: 3.6 µM
% Change in Edema ([4]; 10 mg/kg i.v., 10 min): -39%
% Change in Edema ([4]; 10 mg/kg i.v., 30 min): -43%
% Change in Edema ([4]; 10 mg/kg i.v., 60 min): -37%
% Change in Edema ([4]; 100 mg/kg p.o., 10 min): -6%
% Change in Edema ([4]; 100 mg/kg p.o., 30 min): -22%
% Change in Edema ([4]; 100 mg/kg p.o., 60 min): +18%

Molecule: CC1=C(CC(=O)O)c2cc(OCc3ccc4ccccc4n3)ccc2/C1=C\c1ccc(Cl)cc1 [Example 1, 3-[(4-Chlorophenyl)methylene]-[2-methyl-6-(2-quinolinylmethoxy)]-3H-indene-1-acetic acid]
inhibition at 10000 µM [1]: 96%
inhibition at 10000 µM [2]: 81%
IC50 [3]: 9.7 µM
% Change in Edema ([4]; 10 mg/kg i.v., 10 min): -6%
% Change in Edema ([4]; 10 mg/kg i.v., 30 min): -9%
% Change in Edema ([4]; 10 mg/kg i.v., 60 min): -40%
% Change in Edema ([4]; 100 mg/kg p.o., 10 min): +4%
% Change in Edema ([4]; 100 mg/kg p.o., 30 min): -27%
% Change in Edema ([4]; 100 mg/kg p.o., 60 min): -6%

Molecule: COc1cccc2c1cc([N+](=O)[O-])c1c(C(=O)O)cc3c(c12)OCO3 [Aristolochic Acid, reference compound]
ED50 at +10 min. [4]: Not Active

inhibition (human platelet PLA2): 58%
inhibition [3]: 48%
Molecule: CC1=C(CC(=O)O)c2cc(F)ccc2C1=Cc1ccc(OCc2ccc3ccccc3n2)cc1 [Example 4, 5-Fluoro-2-methyl-1-[[4-(2-quinolinylmethoxy)phenyl]methylene]-1H-indene-3-acetic acid]
inhibition at 500 µM ([1]; at 0.5 mM): 92%
inhibition at 500 µM [2]: 7%

inhibition (human platelet PLA2): 2%
inhibition [3]: 44%
Molecule: CSc1ccc(Cn2c(C)c(CC(=O)O)c3cc(OCc4nc5ccccc5s4)ccc32)cc1 [Example 54, 5-(2-Benzothiazolylmethoxy)-1-[[4-(methylthio)phenyl]methyl]-2-methyl-1H-indole-3-acetic acid]
% Inhibition of LTB4 [5]: 11%

inhibition (human platelet PLA2): 85%
inhibition [3]: 89%
Molecule: Cc1c(CC(=O)O)c2cc(OCc3csc(-c4ccccc4)n3)ccc2n1Cc1csc(-c2ccc(Cl)cc2)n1 [Example 65, 5-[(2-Phenyl-4-thiazolyl)methoxy]-1-[[2-(4-chlorophenyl)-4-thiazolyl]methyl]-2-methyl-1H-indole-3-acetic acid]
% Inhibition of LTB4 [5]: 22%

inhibition (human platelet PLA2): 90%
inhibition [3]: 3.8%
Molecule: CC1=C(CC(=O)O)c2cc(OCc3ccc4ccccc4n3)ccc2C1=Cc1ccc(OCc2ccc3ccccc3n2)cc1 [Example 41, 2-Methyl-5-(2-quinolinylmethoxy)-1-[[4-(2-quinolinylmethoxy)phenyl]methylene]-1H-indene-3-acetic acid]
inhibition at 10000 µM [1]: 100%
inhibition at 500 µM [2]: -21%

inhibition (human platelet PLA2): 5%
inhibition [3]: 2%
Molecule: CONC(=O)Cc1c(C)n(Cc2ccc(Cl)cc2)c2ccc(OCc3nc4ccccc4s3)cc12 [Example 47, 5-(2-Benzothiazolylmethoxy)-1-[(4-chlorophenyl)methyl]-N-methoxy-2-methyl-1H-indole-3-acetamide hemihydrate.]
% Inhibition of LTB4 [5]: 31%

Molecule: Luffarrellolide [reference compound]
ED50 at +10 min. [4]: Not Active

Molecule: COc1ccc2cc([C@H](C)C(=O)O)ccc2c1 [Naproxen, reference compound]
ED50 at +10 min. [4]: 18 mg/kg

inhibition (human platelet PLA2): 41%
inhibition [3]: 88%
Molecule: Cc1c(CC(=O)O)c2cc(OCc3nc4ccccc4s3)ccc2n1Cc1ccccc1 [Example 51, 5-(2-Benzothiazolylmethoxy)-1-(phenylmethyl)-2-methyl-1H-indole-3-acetic acid]
% Inhibition of LTB4 [5]: 5%
